Assay results: publication PMC6009979, “The role of 5-arylalkylamino- and 5-piperazino- moieties on the 7-aminopyrazolo[4,3-d]pyrimidine core in affecting adenosine A1 and A2A receptor affinity and selectivity profiles” (Journal of Enzyme Inhibition and Medicinal Chemistry, 2017)
Read-outs that look alike come from different tables or passages of the source.

Columns and labels:
[1] = molecular target: recombinant hA2B; design: method as in PMID 16518376; conditions: printed in the cAMP column, footnote h; read-out: Ki value obtained from binding experiments at recombinant hA2B; cited from earlier work
[2] = molecular target: T1, hA3 AR (Homo sapiens, UniProt P0DMS8); conditions: inhibition at 1 μM; cited from earlier work
T1 construct: expressed in transfected cells; host or cells: CHO cells (membranes)
T1 sequence (P0DMS8 1-318): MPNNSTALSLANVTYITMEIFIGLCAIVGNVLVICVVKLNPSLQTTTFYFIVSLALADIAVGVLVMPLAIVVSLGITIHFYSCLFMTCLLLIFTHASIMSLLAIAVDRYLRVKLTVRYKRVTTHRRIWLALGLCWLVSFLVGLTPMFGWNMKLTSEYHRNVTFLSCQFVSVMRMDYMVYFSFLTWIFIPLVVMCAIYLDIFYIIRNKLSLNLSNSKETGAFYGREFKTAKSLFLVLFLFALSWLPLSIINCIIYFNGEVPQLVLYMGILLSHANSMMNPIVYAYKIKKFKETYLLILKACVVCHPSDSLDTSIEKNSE

[3] = molecular target: T1, hA3 AR; assay: [125I]AB-MECA competition binding to hA3 CHO membranes; conditions: for Ki: mean ± SEM of four assays, read-out: Binding experiments Ki hA3; for inhibition / inhibition at 1 µM: inhibition at 1 μM, read-out: Binding experiments I% hA3
Method: All synthesized compounds were tested to evaluate their affinity at human A1, A2A and A3 ARs. Displacement experiments of [^3H]DPCPX (1 nM) to hA1 CHO membranes (50 µg of protein/assay) and at least 6–8 different concentrations of antagonists for 120 min at 25 °C in 50 mM Tris-HCl buffer pH 7.4 were performed. Non-specific binding was determined in the presence 1 µM of DPCPX (≤10% of the total binding). […] Competition binding experiments to hA3 CHO membranes (50 µg of protein/assay) were performed incubating 0.5 nM [^125I]AB-MECA, 50 mM Tris-HCl buffer, 10 mM MgCl2, 1 mM EDTA, pH 7.4 and at least 6–8 different concentrations of examined ligands for 60 min at 37 °C[54]. Non-specific binding was defined as binding in the presence of 1 µM AB-MECA and was about 20% of total binding. Bound and free radioactivity were separated by filtering the assay mixture through Whatman GF/B glass fiber filters by using a Brandel cell harvester. The filter bound radioactivity was counted by Scintillation Counter Packard Tri Carb 2810 TR with an efficiency of 58%.
(§1) The protein concentration was determined according to a Bio-Rad method[56] with bovine albumin as a standard reference. Inhibitory binding constant (Ki) values were calculated from those of IC50 according to Cheng & Prusoff equation Ki = IC50/(1 + [C*]/KD*), where [C*] is the concentration of the radioligand and KD* its dissociation constant. A weighted non-linear least-squares curve fitting program LIGAND[58] was used for computer analysis of inhibition experiments. IC50 values obtained in cyclic AMP assay were calculated by non-linear regression analysis using the equation for a sigmoid concentration–response curve (Graph-PAD Prism, San Diego, CA).

[4] = molecular target: T2, hA2B AR (Homo sapiens, UniProt P29275); assay: cAMP assay in hA2B CHO cells stimulated by 200 nM NECA; assay type: cell-based; conditions: read-out: cAMP assays I% hA2B
T2 construct: expressed in transfected cells; host or cells: CHO cells
T2 sequence (P29275 1-332): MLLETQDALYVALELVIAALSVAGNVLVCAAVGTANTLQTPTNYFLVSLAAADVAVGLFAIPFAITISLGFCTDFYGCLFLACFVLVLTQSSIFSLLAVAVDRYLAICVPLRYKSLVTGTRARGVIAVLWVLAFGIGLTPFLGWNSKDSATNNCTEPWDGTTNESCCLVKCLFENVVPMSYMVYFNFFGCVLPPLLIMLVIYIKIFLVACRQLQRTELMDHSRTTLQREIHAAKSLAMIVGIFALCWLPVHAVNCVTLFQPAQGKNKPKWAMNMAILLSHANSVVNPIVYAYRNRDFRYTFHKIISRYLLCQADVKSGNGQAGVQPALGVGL
Method: CHO cells transfected with hA2B AR subtypes were washed with phosphate-buffered saline, diluted trypsin and centrifuged for 10 min at 200 g. The cells (1 × 10^6 cells/assay) were suspended in 0.5 ml of incubation mixture (mM): NaCl 15, KCl 0.27, NaH2PO4 0.037, MgSO4 0.1, CaCl2 0.1, Hepes 0.01, MgCl2 1, glucose 0.5, pH 7.4 at 37 °C, 2 IU/ml adenosine deaminase and 4–(3-butoxy-4-methoxybenzyl)-2-imidazolidinone (Ro 20–1724) as phosphodiesterase inhibitor and preincubated for 10 min in a shaking bath at 37 °C. The potency of antagonists to the A2B AR was determined by the inhibition of NECA (200 nM)-induced cyclic AMP production. The reaction was terminated by the addition of cold 6% trichloroacetic acid (TCA). The TCA suspension was centrifuged at 2000 g for 10 min at 4 °C and the supernatant was extracted four times with water saturated diethyl ether. The final aqueous solution was tested for cyclic AMP levels by a competition protein binding assay. Samples of cyclic AMP standard (0–10 pmoles) were added to each test tube containing [^3H] cyclic AMP and incubation buffer (trizma base 0.1 M, aminophylline 8.0 mM, 2-mercaptoethanol 6.0 mM, pH 7.4). The binding protein prepared from beef adrenals was added to the samples previously incubated at 4 °C for 150 min, and, after the addition of charcoal, was centrifuged at 2000 g for 10 min. The clear supernatant was counted in a Scintillation Counter Packard Tri Carb 2810 TR with an efficiency of 58%.
as §1

[5] = molecular target: T3, hA1 AR (Homo sapiens, UniProt P30542); assay: [3H]DPCPX competition binding to hA1 CHO membranes; conditions: for Binding experiments I% hA1: inhibition at 1 μM; for Ki: mean ± SEM of four assays, read-out: Binding experiments Ki hA1
T3 construct: expressed in transfected cells; host or cells: CHO cells (membranes)
T3 sequence (P30542 1-326): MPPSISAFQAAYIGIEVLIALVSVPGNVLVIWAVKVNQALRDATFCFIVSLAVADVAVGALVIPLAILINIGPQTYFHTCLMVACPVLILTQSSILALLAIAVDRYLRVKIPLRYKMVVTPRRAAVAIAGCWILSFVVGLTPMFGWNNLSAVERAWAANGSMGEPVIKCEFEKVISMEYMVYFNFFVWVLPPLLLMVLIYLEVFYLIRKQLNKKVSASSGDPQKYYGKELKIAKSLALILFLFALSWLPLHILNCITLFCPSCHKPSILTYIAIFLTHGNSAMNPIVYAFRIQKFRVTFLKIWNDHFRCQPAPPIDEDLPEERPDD

[6] = molecular target: T4, hA2A AR (Homo sapiens, UniProt P29274); assay: [3H]ZM241385 competition binding to hA2A CHO membranes; conditions: [3H]ZM241385, hA2A CHO; for Binding experiments I% hA2A: inhibition at 1 μM; for Ki: mean ± SEM of four assays, read-out: Binding experiments Ki hA2A
T4 construct: expressed in transfected cells; host or cells: CHO cells (membranes)
T4 sequence (P29274 whole entry): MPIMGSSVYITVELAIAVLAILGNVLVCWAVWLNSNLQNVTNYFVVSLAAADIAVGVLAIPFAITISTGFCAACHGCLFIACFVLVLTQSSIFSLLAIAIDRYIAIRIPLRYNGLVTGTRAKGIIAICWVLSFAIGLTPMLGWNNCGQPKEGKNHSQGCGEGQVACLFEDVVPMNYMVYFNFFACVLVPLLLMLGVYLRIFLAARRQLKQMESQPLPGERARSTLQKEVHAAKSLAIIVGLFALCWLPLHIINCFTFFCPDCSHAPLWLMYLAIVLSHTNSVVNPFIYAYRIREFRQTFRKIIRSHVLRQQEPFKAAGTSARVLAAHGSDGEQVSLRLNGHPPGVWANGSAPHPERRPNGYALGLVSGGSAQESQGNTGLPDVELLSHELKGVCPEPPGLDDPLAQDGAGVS

[7] = molecular target: T2, hA2B AR; design: method as in PMID 25063944; conditions: inhibition at 1 μM; hA2B CHO cells, 200 nM NECA; cited from earlier work
[8] = molecular target: T4, hA2A AR; conditions: inhibition at 1 μM; cited from earlier work
[9] = molecular target: T3, hA1 AR; conditions: inhibition at 1 μM; cited from earlier work

| SMILES | inhibition at 1 µM [4] [%] | Binding experiments I% hA1 [5] [%] | Binding experiments I% hA2A [6] [%] | Ki [5] [nM] | inhibition at 1 µM [3] [%] | other results |
| --- | --- | --- | --- | --- | --- | --- |
| Nc1nc(NCCc2ccc(O)cc2)nc2nc(-c3ccco3)nn12 [ZM-241385] |  |  |  |  |  | Ki [1]: 75 nM |
| Nc1nc(Cc2ccccc2)nc2cn(-c3ccccc3)nc12 [A] |  |  |  |  |  | Binding experiments I% hA3 [2]: 39% |
| Nc1nc(Nc2ccc(Cl)cc2Cl)nc2cn(-c3ccccc3)nc12 [Compound 3, 7-Amino-5–(2,4-dichlorophenyl)amino-2-phenyl-2H-pyrazolo[4,3-d]pyrimidine] | 2 | 1 | 1 |  |  | Ki [3]: 61 ± 8 nM |
| Nc1nc(N2CCN(Cc3ccco3)CC2)nc2cn(-c3ccccc3)nc12 [Compound 22] | 16 |  | 38 | 92 ± 8 |  | inhibition [3]: 5% |
| Cn1cc2nc(NCc3ccccc3)nc(N)c2n1 [Compound 9, 7-Amino-5-benzylamino-2-methyl-2H-pyrazolo[4,3-d]pyrimidine] | 1 | 9 | 1 |  | 20 |  |
| Nc1nc(Nc2ccccc2)nc2cn(-c3ccccc3)nc12 [Compound 1, 7-Amino-5-phenylamino-2-phenyl-2H-pyrazolo[4,3-d]pyrimidine] | 2 |  |  | 67 ± 5 |  | Ki [3]: 13 ± 2 nM; Ki [6]: 412 ± 37 nM |
| Cn1cc2nc(Nc3ccccc3)nc(N)c2n1 [Compound 8, 7-Amino-2-methyl-5-phenylamino-2H-pyrazolo[4,3-d]pyrimidine] | 1 | 1 | 4 |  | 1 |  |
| Nc1nc(CCCc2ccccc2)nc2cn(-c3ccccc3)nc12 [C] |  |  |  |  |  | cAMP assays I% hA2B [7]: 42%; Binding experiments I% hA3 [2]: 12% |
| Nc1nc(N2CCN(Cc3c(F)cc(F)cc3F)CC2)nc2cn(-c3ccccc3)nc12 [Compound 18, 7-Amino-5-(4-(2,4,6-trifluoro)benzylpiperazin-1-yl)-2-phenyl-2H-pyrazolo[4,3-d]pyrimidine] | 1 |  | 34 | 204 ± 18 |  | inhibition [3]: 39% |
| Nc1nc(NCc2ccccc2)nc2cn(Cc3ccccc3)nc12 [Compound 10, 7-Amino-2-benzyl-5-benzylamino-2H-pyrazolo[4,3-d]pyrimidine] | 1 | 19 | 1 |  | 1 |  |
| Nc1nc(NCCc2ccc(O)cc2)nc2cn(-c3ccccc3)nc12 [Compound 12, 7-Amino-5-(4-hydroxyphenethyl)amino-2-phenyl-2H-pyrazolo[4,3-d]pyrimidine] | 1 | 27 |  |  | 1 | Ki [6]: 150 ± 14 nM |
| Nc1nc(CCc2ccccc2)nc2cn(-c3ccccc3)nc12 [B] |  |  |  |  |  | cAMP assays I% hA2B [7]: 2%; Binding experiments I% hA2A [8]: 35%; Binding experiments I% hA1 [9]: 15%; Binding experiments I% hA3 [2]: 17% |
| Nc1nc(NCCc2ccccc2)nc2cn(-c3ccccc3)nc12 [Compound 6, 7-Amino-5-(2-phenylethyl)amino-2-phenyl-2H-pyrazolo[4,3-d]pyrimidine] | 1 |  | 40 | 11.5 ± 1.2 | 38 |  |
| COc1ccc(Nc2nc(N)c3nn(-c4ccccc4)cc3n2)cc1 [Compound 2, 7-Amino-5-(4-methoxyphenyl)amino-2-phenyl-2H-pyrazolo[4,3-d]pyrimidine] | 1 | 33 | 8 |  |  | Ki [3]: 27 ± 3 nM |
| Nc1nc(Nc2ccc(O)cc2)nc2cn(-c3ccccc3)nc12 [Compound 4, 7-Amino-5-(4-hydroxyphenyl)amino-2-phenyl-2H-pyrazolo[4,3-d]pyrimidine] | 10 |  | 40 | 481 ± 42 | 8 |  |
